Source: patent EP4775580A1, “COMPOUND, PHARMACEUTICAL COMPOSITION COMPRISING SAME, AND USE THEREOF” (Euregen Biopharma Co., Ltd., priority 2023, dated 2025)
Where a chain is given by its changes, count along the chain named.

Columns and labels:
[1] = target: T1, Menin-M327V (Homo sapiens, UniProt O00255, M322V); assay: Fluorescence polarization assay of Menin binding to MLL peptide, M327V mutant; conditions: FP, 8 nM Menin, 4 nM MLL peptide
T1 sequence (O00255 1-615 isoform O00255-1 M327V): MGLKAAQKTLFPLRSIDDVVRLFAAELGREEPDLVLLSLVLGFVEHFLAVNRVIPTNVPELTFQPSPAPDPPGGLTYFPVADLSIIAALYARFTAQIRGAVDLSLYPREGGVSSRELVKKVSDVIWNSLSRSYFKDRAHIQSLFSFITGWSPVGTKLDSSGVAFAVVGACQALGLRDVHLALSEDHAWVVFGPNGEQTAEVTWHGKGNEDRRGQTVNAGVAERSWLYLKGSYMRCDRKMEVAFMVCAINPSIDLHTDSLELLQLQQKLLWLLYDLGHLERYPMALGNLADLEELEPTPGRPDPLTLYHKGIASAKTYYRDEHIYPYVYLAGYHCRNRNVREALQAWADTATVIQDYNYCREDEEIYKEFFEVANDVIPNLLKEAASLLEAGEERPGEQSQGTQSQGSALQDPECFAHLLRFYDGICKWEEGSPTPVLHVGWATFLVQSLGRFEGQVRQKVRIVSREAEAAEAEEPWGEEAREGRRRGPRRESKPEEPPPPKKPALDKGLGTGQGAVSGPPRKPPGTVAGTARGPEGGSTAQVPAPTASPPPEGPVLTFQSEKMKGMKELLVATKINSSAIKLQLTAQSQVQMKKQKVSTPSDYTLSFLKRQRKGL
Source text: (§1) • 1. Objective: To evaluate the inhibitory activity of compounds against wild-type Menin protein (Menin-WT) and its mutant variants (Menin-M327V, Menin-M327I, Menin-T349M, Menin-S160T, Menin-S160C, Menin-G331R, and Menin-G331D). • 2. Experimental Principle: The experiment employed fluorescence polarization (FP) to detect the binding of wild-type Menin protein and its mutant variants to MLL peptide. In the absence of inhibitors, binding of wild-type Menin protein and its mutant variants to MLL peptide generates a high FP signal; upon addition of inhibitors, the binding between Menin proteins and MLL peptide is disrupted, resulting in a low FP signal. • 3. Experimental Materials: Final concentration of wild-type Menin protein and its mutant variants: 8 nM; final concentration of MLL peptide: 4 nM. Assay buffer: 50 mM Tris-HCl (pH 8.0), 120 mM NaCl, 0.005% CA-630, 2 mM DTT. • 4. […] The plate was centrifuged at 1000 rpm for 60 seconds. Subsequently, 10 µL of MLL peptide was added to each assay well. The plate was centrifuged at 1000 rpm for 60 seconds and sealed with a sealing membrane. After incubation at 23°C for 60 minutes, the plate was read using a PerkinElmer Envision reader. Data Analysis: [formula]
(§2) Curve fitting: XLFIT software was used for curve fitting, employing a four-parameter logistic model with percent inhibition versus log(compound concentration) as variables.

[2] = target: T2, Menin-M327I (Homo sapiens, UniProt O00255, M322I); assay: Fluorescence polarization assay of Menin binding to MLL peptide, M327I mutant; conditions: FP, 8 nM Menin, 4 nM MLL peptide
T2 sequence (O00255 1-615 isoform O00255-1 M327I): T1 sequence (O00255 1-615 isoform O00255-1 M327V) with V327I
Source text: as §1, §2

[3] = system: HL-60 cells; assay: Antiproliferative activity, CellTiter-Glo, 7 days (Test Example 2), HL-60; assay type: cell-based; conditions: Homo sapiens, 168 h, HL-60 cells (no Menin-MLL fusion), 7 days incubation
Source text: [0134] 1. Experimental Principle: MV-4-11, Molm-13, and OCI-AML-3 cells are human hematologic tumor cell lines harboring the Menin-MLL fusion. HL-60 is a wild-type human hematologic tumor cell line without Menin-MLL fusion. […] 2. Experimental Materials: MV-4-11, Molm-13, OCI-AML-3, and HL-60 cells were all purchased from Cobioer; CellTiter-Glo® was purchased from Promega (Cat. #G7571); RPMI-1640 was purchased from Viva Cell (Cat. #C3010-0500); IMDM was purchased from Viva Cell (Cat. #C3040-0500); fetal bovine serum (FBS) was purchased from Biosera (Cat. #FB-1058/500); penicillin-streptomycin was purchased from BasalMedia (Cat. #S110JV); 0.25% Trypsin-EDTA was purchased from BasalMedia (Cat. #S310KJ); dimethyl sulfoxide (DMSO) was purchased from Sinopharm (Cat. #30072418); 96-well plates were purchased from Corning (Cat. #3610); incubator was obtained from PHCbi (Model: MCO-18AC); inverted microscope was obtained from Mingmei (Cat. #MI52-0); automated cell counter was obtained from BodBoge (Model: JSY-SC-031N); microplate reader was obtained from PerkinElmer (Model: Envision); data processing software: GraphPad Prism 8.0. 3. Experimental Methods: Four cell lines in logarithmic growth phase were resuspended in their respective growth media (MV-4-11: IMDM + 20% FBS; Molm-13: RPMI-1640 + 20% FBS; OCI-AML-3: RPMI-1640 + 20% FBS; HL-60: RPMI-1640 + 10% FBS) and diluted to target densities (12,500, 6,250, 12,500, and 12,500/mL, respectively). The cell suspensions were seeded into 96-well plates at 80 µL per well and incubated overnight at 37°C in a 5% CO2 incubator. Culture medium served as the background control. Test compounds were dissolved in DMSO to prepare 10 mmol/L stock solutions. The stock solutions were first diluted to 2 mmol/L with DMSO, followed by 4-fold serial dilutions to generate 10 concentrations. From each concentration, 2 µL was diluted with 78 µL growth medium. […] After incubation at room temperature for 10 minutes, luminescence values were read using the EnVision microplate reader, and IC50 values were calculated using GraphPad Prism 8.0 software. […]

Row | SMILES | IC50 [1] [nM] | IC50 [2] [nM] | IC50 [3] [nM]
1 | CCN(C(=O)c1cc(F)ccc1N1CCN([C@@H]2CCN([C@H](CCCN(C)CCOC)C(C)C)C2)c2ncncc21)C(C)C [Example 3] | 49.3 | 40.7 | > 10000
2 | CCN(C(=O)c1cc(F)ccc1Oc1cncnc1N1CC2(CCN(C[C@H]3CC[C@H](NS(=O)(=O)CC)CC3)CC2)C1)C(C)C [SNDX-5613, revumenib] | 1300 | 928 | > 10000
